Laboratory results from patent EP1181935A2, “Agent for treating mental disorders associated with cerebrovascular disorders” (SUMITOMO PHARMACEUTICALS COMPANY, LIMITED, priority 1995, dated 1996).
Where a name gives a salt, the structure may show the parent alone.

Tested on: patients with cerebral infarction or hemorrhage accompanied by various mental disorders
Test: Clinical trial of SM-9018 for mental disorders associated with cerebrovascular disorders
Format: in vivo
Conditions: 8 weeks
Procedure: Examination 1 Clinical trial of SM-9018 for mental disorders associated with cerebrovascular disorders.
SM-9018 was administered to patients with cerebral infarction or hemorrhage accompanied by various mental disorders described above to examine whether the mental disorders will be improved or not.
One mg/dosage of SM-9018 was orally administered once (Step I), twice (Step II) or 3 times a day (Step III) for up to 2 weeks after the administration was started and, when the treatment was effective, administration thereof was continued.
[2] Administration periods: 8 weeks
Improvement of the mental disorders was evaluated by categorizing into 4 grades: i.e. 1) "excellent", 2) "moderate", 3) "slight", or 4) "unchanged" or other. Among the results obtained, "the number of patients categorized to 1) + 2) divided by the number of patients tested" for each symptom is summarized in the following Tables 1 to 3.

[1] = Step I: 1 mg orally once a day (increased to 1 mg x 2 times/day if no effect)
[2] = Step I: 1 mg orally once a day (increased to 1 mg x 2 times/day if no effect), 35 patients examined
[3] = Step II: 1 mg orally twice a day (increased to 2 mg x 2 times/day if no effect)
[4] = Step II: 1 mg orally twice a day (increased to 2 mg x 2 times/day if no effect), 28 patients examined
[5] = Step III: 1 mg orally 3 times a day (increased to 2 mg x 3 times/day if no effect)
[6] = Step III: 1 mg orally 3 times a day (increased to 2 mg x 3 times/day if no effect), 20 patients examined

Structure (SMILES): O=C1[C@H]2CCCC[C@H]2C(=O)N1CCCCN1CCN(c2nsc3ccccc23)CC1 [SM-9018, N-[4-[4-(1,2-benzisothiazol-3-yl)-1-piperazinyl]butyl]-1,2-cis-cyclohexandicarboxyimide hydrochloride]
- Aggressive behavior: number of patients categorized to 1) + 2) divided by the number of patients tested [1]: 2/7
- Anxiety: number of patients categorized to 1) + 2) divided by the number of patients tested [1]: 3/22
- Bad humor: number of patients categorized to 1) + 2) divided by the number of patients tested [1]: 4/18
- Delirium: number of patients categorized to 1) + 2) divided by the number of patients tested [1]: 1/4
- Depressive mood: number of patients categorized to 1) + 2) divided by the number of patients tested [1]: 4/25
- Emotional incontinence: number of patients categorized to 1) + 2) divided by the number of patients tested [1]: 2/13
- Emotional tension: number of patients categorized to 1) + 2) divided by the number of patients tested [1]: 2/18
- Fugue: number of patients categorized to 1) + 2) divided by the number of patients tested [1]: 1/6
- Irritability: number of patients categorized to 1) + 2) divided by the number of patients tested [1]: 4/25
- Mental excitement: number of patients categorized to 1) + 2) divided by the number of patients tested [1]: 2/14
- Reduced expression of desires: number of patients categorized to 1) + 2) divided by the number of patients tested [1]: 3/29
- Reduced initiative in activities: number of patients categorized to 1) + 2) divided by the number of patients tested [1]: 3/30
- Reduced interest in housework, amusement, pastime and the like: number of patients categorized to 1) + 2) divided by the number of patients tested [1]: 4/31
- Reduced positiveness to an influence: number of patients categorized to 1) + 2) divided by the number of patients tested [1]: 5/30
- Total emotional disorders: number of patients categorized to 1) + 2) divided by the number of patients tested [1]: 8/33
- Total loss of spontaneity: number of patients categorized to 1) + 2) divided by the number of patients tested [1]: 4/32
- Total problem behavior: number of patients categorized to 1) + 2) divided by the number of patients tested [1]: 2/18
- patients with some improvement of mental disorders, including those judged as "slight" (global evaluation) [1]: about 77%
- Final global improvement rating: Excellent (number of patients) [2]: 2
- Final global improvement rating: Moderate (number of patients) [2]: 5
- Final global improvement rating: Slight (number of patients) [2]: 20
- Aggressive behavior: number of patients categorized to 1) + 2) divided by the number of patients tested [3]: 3/4
- Anxiety: number of patients categorized to 1) + 2) divided by the number of patients tested [3]: 4/23
- Bad humor: number of patients categorized to 1) + 2) divided by the number of patients tested [3]: 9/21
- Delirium: number of patients categorized to 1) + 2) divided by the number of patients tested [3]: 2/5
- Depressive mood: number of patients categorized to 1) + 2) divided by the number of patients tested [3]: 8/23
- Emotional incontinence: number of patients categorized to 1) + 2) divided by the number of patients tested [3]: 3/13
- Emotional tension: number of patients categorized to 1) + 2) divided by the number of patients tested [3]: 3/18
- Fugue: number of patients categorized to 1) + 2) divided by the number of patients tested [3]: 1/3
- Irritability: number of patients categorized to 1) + 2) divided by the number of patients tested [3]: 5/19
- Mental excitement: number of patients categorized to 1) + 2) divided by the number of patients tested [3]: 4/10
- Reduced expression of desires: number of patients categorized to 1) + 2) divided by the number of patients tested [3]: 5/23
- Reduced initiative in activities: number of patients categorized to 1) + 2) divided by the number of patients tested [3]: 5/26
- Reduced interest in housework, amusement, pastime and the like: number of patients categorized to 1) + 2) divided by the number of patients tested [3]: 6/27
- Reduced positiveness to an influence: number of patients categorized to 1) + 2) divided by the number of patients tested [3]: 6/23
- Total emotional disorders: number of patients categorized to 1) + 2) divided by the number of patients tested [3]: 11/28
- Total loss of spontaneity: number of patients categorized to 1) + 2) divided by the number of patients tested [3]: 8/27
- Total problem behavior: number of patients categorized to 1) + 2) divided by the number of patients tested [3]: 5/10
- patients with some improvement of mental disorders, including those judged as "slight" (global evaluation) [3]: about 75%
- Final global improvement rating: Excellent (number of patients) [4]: 3
- Final global improvement rating: Moderate (number of patients) [4]: 10
- Final global improvement rating: Slight (number of patients) [4]: 8
- Aggressive behavior: number of patients categorized to 1) + 2) divided by the number of patients tested [5]: 2/5
- Anxiety: number of patients categorized to 1) + 2) divided by the number of patients tested [5]: 6/19
- Bad humor: number of patients categorized to 1) + 2) divided by the number of patients tested [5]: 6/16
- Delirium: number of patients categorized to 1) + 2) divided by the number of patients tested [5]: 1/4
- Depressive mood: number of patients categorized to 1) + 2) divided by the number of patients tested [5]: 6/18
- Emotional incontinence: number of patients categorized to 1) + 2) divided by the number of patients tested [5]: 2/10
- Emotional tension: number of patients categorized to 1) + 2) divided by the number of patients tested [5]: 5/15
- Fugue: number of patients categorized to 1) + 2) divided by the number of patients tested [5]: 0/3
- Irritability: number of patients categorized to 1) + 2) divided by the number of patients tested [5]: 5/16
- Mental excitement: number of patients categorized to 1) + 2) divided by the number of patients tested [5]: 3/8
- Reduced expression of desires: number of patients categorized to 1) + 2) divided by the number of patients tested [5]: 3/16
- Reduced initiative in activities: number of patients categorized to 1) + 2) divided by the number of patients tested [5]: 6/17
- Reduced interest in housework, amusement, pastime and the like: number of patients categorized to 1) + 2) divided by the number of patients tested [5]: 8/16
- Reduced positiveness to an influence: number of patients categorized to 1) + 2) divided by the number of patients tested [5]: 3/17
- Total emotional disorders: number of patients categorized to 1) + 2) divided by the number of patients tested [5]: 10/20
- Total loss of spontaneity: number of patients categorized to 1) + 2) divided by the number of patients tested [5]: 9/18
- Total problem behavior: number of patients categorized to 1) + 2) divided by the number of patients tested [5]: 3/10
- patients with some improvement of mental disorders, including those judged as "slight" (global evaluation) [5]: about 80%
- Final global improvement rating: Excellent (number of patients) [6]: 6
- Final global improvement rating: Moderate (number of patients) [6]: 7
- Final global improvement rating: Slight (number of patients) [6]: 3
